Measured values published in patent US11759455B2, “Substituted 1H-imidazo[4,5-b]pyridin-2(3H)-ones and their use as GLUN2B receptor modulators” (JANSSEN PHARMACEUTICA NV, priority 2016, dated 2023).
Like-named read-outs stand apart in the source and are kept apart here.

Target: T1, human GluN1/GluN2B NMDA receptors (Homo sapiens, UniProt Q05586+Q13224)
T1 construct: expressed in transfected cells
Test: Cell-based calcium flux (FLIPR) assay on cloned human NR1/NR2B ion channels expressed in mammalian cells (standard and HTS buffer variants);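 also: stable Tet-On inducible cell line, Ca2+ influx triggered by glutamate at about EC40 plus 10 µM glycine, fluorescent dye read-out over 5 min, normalized to control wells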

[1] = standard assay buffer (0.5 mM MgCl2 in dye loading buffer; 137 mM NaCl, 4 mM KCl in assay buffer), human GluN1/GluN2B, read-out: NR2B IC50 (μM) standard assay
[2] = standard assay buffer (0.5 mM MgCl2 dye loading; 137 mM NaCl, 4 mM KCl assay buffer), human GluN1/GluN2B cells, read-out: NR2B IC50 (μM) standard assay

T1 sequence (Q13224 27-1484, other chains not shown): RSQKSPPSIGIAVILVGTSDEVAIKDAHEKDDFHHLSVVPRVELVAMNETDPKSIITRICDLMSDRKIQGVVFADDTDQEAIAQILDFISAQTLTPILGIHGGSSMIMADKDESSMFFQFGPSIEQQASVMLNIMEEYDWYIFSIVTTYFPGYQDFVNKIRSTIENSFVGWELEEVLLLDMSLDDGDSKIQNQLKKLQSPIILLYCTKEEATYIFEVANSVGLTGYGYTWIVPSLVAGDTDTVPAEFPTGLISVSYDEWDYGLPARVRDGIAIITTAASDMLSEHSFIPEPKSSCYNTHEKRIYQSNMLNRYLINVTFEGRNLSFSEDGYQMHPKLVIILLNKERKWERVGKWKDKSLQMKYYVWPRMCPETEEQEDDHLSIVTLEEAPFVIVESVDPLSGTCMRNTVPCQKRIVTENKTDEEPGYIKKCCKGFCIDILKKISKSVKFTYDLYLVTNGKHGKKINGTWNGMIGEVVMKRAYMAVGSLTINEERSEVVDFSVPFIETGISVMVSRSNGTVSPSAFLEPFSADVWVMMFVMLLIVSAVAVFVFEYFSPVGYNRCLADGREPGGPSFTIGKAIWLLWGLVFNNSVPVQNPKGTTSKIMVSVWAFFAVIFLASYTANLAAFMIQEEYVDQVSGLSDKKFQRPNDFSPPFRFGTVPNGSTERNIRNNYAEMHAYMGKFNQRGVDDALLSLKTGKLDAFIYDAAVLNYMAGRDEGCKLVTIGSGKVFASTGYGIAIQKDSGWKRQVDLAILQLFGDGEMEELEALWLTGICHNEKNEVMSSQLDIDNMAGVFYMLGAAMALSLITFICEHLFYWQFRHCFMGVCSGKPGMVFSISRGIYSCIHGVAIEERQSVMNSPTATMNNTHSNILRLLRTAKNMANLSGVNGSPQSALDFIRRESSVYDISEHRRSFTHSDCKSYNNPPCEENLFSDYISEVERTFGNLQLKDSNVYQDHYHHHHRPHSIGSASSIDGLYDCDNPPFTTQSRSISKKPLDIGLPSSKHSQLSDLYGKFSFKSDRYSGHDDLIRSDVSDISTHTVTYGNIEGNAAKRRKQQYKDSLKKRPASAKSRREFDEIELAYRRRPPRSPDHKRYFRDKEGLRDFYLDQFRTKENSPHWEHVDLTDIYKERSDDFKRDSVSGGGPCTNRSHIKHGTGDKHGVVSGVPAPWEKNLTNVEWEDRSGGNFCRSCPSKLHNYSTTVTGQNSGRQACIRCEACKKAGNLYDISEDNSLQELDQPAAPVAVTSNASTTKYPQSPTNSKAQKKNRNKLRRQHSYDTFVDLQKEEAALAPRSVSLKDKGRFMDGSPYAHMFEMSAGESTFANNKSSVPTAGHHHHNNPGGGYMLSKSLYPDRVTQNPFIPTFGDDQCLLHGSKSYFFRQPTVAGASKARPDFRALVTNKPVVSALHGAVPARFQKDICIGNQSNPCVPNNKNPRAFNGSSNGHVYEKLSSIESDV

SMILES	IC50 [1]	IC50 [2]	further results
CCC(O)Cn1c(=O)[nH]c2ncc(-c3cccc(C)c3)cc21 (racemic) [Example 335, (R/S)-1-(2-Hydroxybutyl)-6-(m-tolyl)-3H-imidazo[4,5-b]pyridin-2-one]	0.054 µM	–	–
[2H]c1c(-c2ccc(C(F)(F)F)s2)cnc2c1n(CC(=O)N1CCC1)c(=O)n2C [Example 120, 1-(2-(Azetidin-1-yl)-2-oxoethyl)-3-methyl-6-(5-(trifluoromethyl)thiophen-2-yl)-1,3-dihydro-2H-imidazo[4,5-b]pyridin-2-one-7-D]	–	0.01 µM	–
CCC(O)Cn1c(=O)n(C)c2ncc(-c3ccc(F)c(F)c3)cc21 (racemic) [Example 333, (R/S)-6-(3,4-Difluorophenyl)-1-(2-hydroxybutyl)-3-methyl-imidazo[4,5-b]pyridin-2-one]	1.9 µM	–	–
O=c1[nH]c2ncc(-c3ccccc3)cc2n1CC1CCN1 (racemic) [Example 265, (R/S)-1-(Azetidin-2-ylmethyl)-6-phenyl-3H-imidazo[4,5-b]pyridin-2-one]	–	0.397 µM	–
[2H]C([2H])([2H])OCc1ccc(-c2cnc3c(c2)n(CC(=O)N(C)C)c(=O)n3C)s1 [Example 121, N,N-Dimethyl-2-[3-methyl-2-oxo-6-[5-(trideuteriomethoxymethyl)-2-thienyl]imidazo[4,5-b]pyridin-1-yl]acetamide]	–	2.96 µM	–
O=c1[nH]c2ncc(-c3cccc(C(F)(F)F)c3F)cc2n1CC1CCN1 (racemic) [Example 264, (R/S)-1-(Azetidin-2-ylmethyl)-6-[2-fluoro-3-(trifluoromethyl)phenyl]-3H-imidazo[4,5-b]pyridin-2-one]	–	0.044 µM	–
CC(C(=O)N1CCC1)n1c(=O)[nH]c2ncc(-c3cccc(C(F)(F)F)c3)cc21 (racemic) [Example 203, (R/S)-1-[2-(Azetidin-1-yl)-1-methyl-2-oxo-ethyl]-6-[3-(trifluoromethyl)phenyl]-3H-imidazo[4,5-1D]pyridin-2-one]	–	1.1 µM	–
O=c1[nH]c2ncc(-c3cccc(C(F)(F)F)c3)cc2n1CC(O)C1CC1 (racemic) [Example 31, (R/S)-1-(2-Cyclopropyl-2-hydroxy-ethyl)-6-[3-(trifluoromethyl)phenyl]-3H-imidazo[4,5-b]pyridin-2-one]	–	0.151 µM	–
O=c1[nH]c2ncc(-c3cccc(C(F)(F)F)c3)cc2n1CC1CCCCO1 (racemic) [Example 218, (R/S)-1-(Tetrahydropyran-2-ylmethyl)-6-[3-(trifluoromethyl)phenyl]-3H-imidazo[4,5-b]pyridin-2-one]	–	0.552 µM	–
Cn1c(=O)n(CC2CCN2)c2cc(-c3cccc(C(F)(F)F)c3)cnc21 (racemic) [Example 245, (R/S)-1-(Azetidin-2-ylmethyl)-3-methyl-6-[3-(trifluoromethyl)phenyl]imidazo[4,5-b]pyridin-2-one]	–	0.409 µM	–
COc1ccc(-c2cnc3[nH]c(=O)n(CC(=O)C(C)(C)C)c3c2)cc1 [Example 601, 1-(3,3-Dimethyl-2-oxo-butyl)-6-(4-methoxyphenyl)-3H-imidazo[4,5-b]pyridin-2-one]	1.63 µM	–	–
O=c1[nH]c2ncc(-c3cccc(C(F)(F)F)c3)cc2n1CC1CCCO1 (racemic) [Example 24, (R/S)-1-(Tetrahydrofuran-2-ylmethyl)-6-[3-(trifluoromethyl)phenyl]-3H-imidazo[4,5-b]pyridin-2-one]	–	0.127 µM	–
CC(C)C(O)Cn1c(=O)[nH]c2ncc(-c3cccc(C(F)(F)F)c3)cc21 (racemic) [Example 338, (R/S)-1-(2-Hydroxy-3-methyl-butyl)-6-[3-(trifluoromethyl)phenyl]-3H-imidazo[4,5-b]pyridin-2-one]	0.687 µM	–	–
COCCC(O)Cn1c(=O)n(C)c2ncc(-c3ccc(F)c(C)c3)cc21 (racemic) [Example 393, (R/S)-6-(4-Fluoro-3-methyl-phenyl)-1-(2-hydroxy-4-methoxy-butyl)-3-methyl-imidazo[4,5-b]pyridin-2-one]	0.486 µM	–	–
[2H]C([2H])([2H])OCc1ccc(-c2cnc3c(c2)n(CC(=O)N2CC(F)C2)c(=O)n3C)s1 [Example 123, 1-[2-(3-Fluoroazetidin-1-yl)-2-oxo-ethyl]-3-methyl-6-[5-(trideuteriomethoxymethyl)-2-thienyl]imidazo[4,5-b]pyridin-2-one]	–	1.82 µM	–
CCC(O)Cn1c(=O)[nH]c2ncc(-c3ccc(OC)cc3)cc21 (single isomer, unassigned) [Example 4, (S*)-1-(2-Hydroxybutyl)-6-(4-methoxyphenyl)-3H-imidazo[4,5-b]pyridin-2-one]	–	0.32 µM	–
CCC(O)Cn1c(=O)[nH]c2ncc(-c3cccc(C(F)(F)F)c3)cc21 (racemic) [Example 337, (R/S)-1-(2-Hydroxybutyl)-6-[3-(trifluoromethyl)phenyl]-3H-imidazo[4,5-b]pyridin-2-one]	0.119 µM	–	–
CCC(O)Cn1c(=O)[nH]c2ncc(-c3ccc(F)c(C)c3F)cc21 (racemic) [Example 336, (R/S)-6-(2,4-Difluoro-3-methyl-phenyl)-1-(2-hydroxybutyl)-3H-imidazo[4,5-b]pyridin-2-one]	0.015 µM	–	–

SMILES	IC50 [1]	IC50 [2]	further results
Cn1c(=O)n(CC2CCO2)c2cc(-c3cccc(Cl)c3)cnc21 (racemic) [Example 397, (R/S)-6-(3-Chlorophenyl)-3-methyl-1-(oxetan-2-ylmethyl)imidazo[4,5-b]pyridin-2-one]	0.228 µM	–	–
[2H]C([2H])([2H])OCc1ccc(-c2cnc3c(c2)n(CC(=O)N2CCC2)c(=O)n3C)s1 [Example 122, 1-[2-(Azetidin-1-yl)-2-oxo-ethyl]-3-methyl-6-[5-(trideuteriomethoxymethyl)-2-thienyl]imidazo[4,5-b]pyridin-2-one]	–	1.22 µM	–
CCC(O)Cn1c(=O)[nH]c2ncc(-c3ccc(F)cc3C)cc21 (single isomer, unassigned) [Example 43, (R*)-6-(4-Fluoro-2-methyl-phenyl)-1-(2-hydroxybutyl)-3H-imidazo[4,5-b]pyridin-2-one]	–	–	IC50 (HTS assay buffer (1.5 mM MgCl2 dye loading; 150 mM NaCl, 3 mM KCl assay buffer), human GluN1/GluN2B cells, read-out: NR2B IC50 (μM) HTS assay): 3.49 µM
O=c1[nH]c2ncc(-c3cccc(C(F)(F)F)c3)cc2n1CC1CCO1 (single isomer, unassigned) [Example 224, (S*)-1-(Oxetan-2-ylmethyl)-6-[3-(trifluoromethyl)phenyl]-3H-imidazo[4,5-b]pyridin-2-one]	–	0.054 µM	–
CC(C(=O)NC1CC1)n1c(=O)[nH]c2ncc(-c3cccc(C(F)(F)F)c3)cc21 (racemic) [Example 202, (R/S)—N-Cyclopropyl-2-[2-oxo-6-[3-(trifluoromethyl)phenyl]-3H-imidazo[4,5-b]pyridin-1-yl]propanamide]	–	7.32 µM	–
COc1ccc(-c2cnc3[nH]c(=O)n(CC(=O)C(C)(C)C)c3c2)cc1C [Example 603, 1-(3,3-Dimethyl-2-oxo-butyl)-6-(4-methoxy-3-methyl-phenyl)-3H-imidazo[4,5-b]pyridin-2-one]	1.29 µM	–	–
Cc1cc(F)ccc1-c1cnc2c(c1)n(CC1CCO1)c(=O)n2C (racemic) [Example 33, (R/S)-6-(4-Fluoro-2-methyl-phenyl)-3-methyl-1-(oxetan-2-ylmethyl)imidazo[4,5-b]pyridin-2-one]	–	1.23 µM	–
Cn1c(=O)n(CC2CCO2)c2cc(-c3cccc(C(F)(F)F)c3)cnc21 (racemic) [Example 133, (R/S)-3-methyl-1-(oxetan-2-ylmethyl)-6-[3-(trifluoromethyl)phenyl]imidazo[4,5-b]pyridin-2-one]	–	0.211 µM	–
O=c1[nH]c2ncc(-c3ccc(F)c(C(F)(F)F)c3)cc2n1CC1CCN1 (racemic) [Example 267, (R/S)-1-(Azetidin-2-ylmethyl)-6-[4-fluoro-3-(trifluoromethyl)phenyl]-3H-imidazo[4,5-b]pyridin-2-one]	–	0.442 µM	–
O=c1[nH]c2ncc(-c3ccc(F)c(C(F)(F)F)c3)cc2n1CC1CCO1 (racemic) [Example 271, (R/S)-6-[4-Fluoro-3-(trifluoromethyl)phenyl]-1-(oxetan-2-ylmethyl)-3H-imidazo[4,5-b]pyridin-2-one]	–	0.046 µM	–
O=c1[nH]c2ncc(-c3cccc(Cl)c3Cl)cc2n1CC1CCN1 (racemic) [Example 268, (R/S)-1-(Azetidin-2-ylmethyl)-6-(2,3-dichlorophenyl)-3H-imidazo[4,5-b]pyridin-2-one]	–	0.041 µM	–
Cn1c(=O)n(CC2CCO2)c2cc(-c3cccc(C(F)(F)F)c3F)cnc21 (racemic) [Example 396, (R/S)-6-[2-Fluoro-3-(trifluoromethyl)phenyl]-3-methyl-1-(oxetan-2-ylmethyl)imidazo[4,5-b]pyridin-2-one]	0.135 µM	–	–
Cc1cc(-c2cnc3c(c2)n(CC(=O)N2CCC2)c(=O)n3C)ccc1F [Example 410, 1-[2-(Azetidin-1-yl)-2-oxo-ethyl]-6-(4-fluoro-3-methyl-phenyl)-3-methyl-imidazo[4,5-b]pyridin-2-one]	0.013 µM	–	–
O=c1[nH]c2ncc(-c3cccc(C(F)(F)F)c3)cc2n1CC1CCN1 (racemic) [Example 263, (R/S)-1-(Azetidin-2-ylmethyl)-6-[3-(trifluoromethyl)phenyl]-3H-imidazo[4,5-b]pyridin-2-one]	–	0.063 µM	–
CCC(O)Cn1c(=O)[nH]c2ncc(-c3ccc(F)c(C)c3)cc21 (racemic) [Example 334, (R/S)-6-(4-Fluoro-3-methyl-phenyl)-1-(2-hydroxybutyl)-3H-imidazo[4,5-b]pyridin-2-one]	0.031 µM	–	–
COc1ccc(-c2cnc3[nH]c(=O)n(CC(=O)C(C)(C)C)c3c2)cc1F [Example 609, 1-(3,3-Dimethyl-2-oxo-butyl)-6-(3-fluoro-4-methoxy-phenyl)-3H-imidazo[4,5-b]pyridin-2-one]	0.263 µM	–	–
Cn1c(=O)n(CC2CCO2)c2cc(-c3cccc(C(F)F)c3)cnc21 (racemic) [Example 394, (R/S)-6-[3-(Difluoromethyl)phenyl]-3-methyl-1-(oxetan-2-ylmethyl)imidazo [4,5-b]pyridin-2-one]	0.128 µM	–	–
